Here are results for 17 molecules from patent publication US5011854A, “Hydroxamic acid derivatives and use thereof in combatting lipoxygenase-mediated diseases” (Kyowa Hakko Kogyo Co. Ltd., priority 1987, dated 1991).

Molecules are shown by their SMILES.

In experiment [1] the target is T1, 12-lipoxygenase (Bos taurus, UniProt F1MFA8).
T1 construct: a bovine platelet-derived preparation was used as the 12-lipoxygenase source; from tissue; host or cells: bovine platelets
T1 sequence (F1MFA8 1-663): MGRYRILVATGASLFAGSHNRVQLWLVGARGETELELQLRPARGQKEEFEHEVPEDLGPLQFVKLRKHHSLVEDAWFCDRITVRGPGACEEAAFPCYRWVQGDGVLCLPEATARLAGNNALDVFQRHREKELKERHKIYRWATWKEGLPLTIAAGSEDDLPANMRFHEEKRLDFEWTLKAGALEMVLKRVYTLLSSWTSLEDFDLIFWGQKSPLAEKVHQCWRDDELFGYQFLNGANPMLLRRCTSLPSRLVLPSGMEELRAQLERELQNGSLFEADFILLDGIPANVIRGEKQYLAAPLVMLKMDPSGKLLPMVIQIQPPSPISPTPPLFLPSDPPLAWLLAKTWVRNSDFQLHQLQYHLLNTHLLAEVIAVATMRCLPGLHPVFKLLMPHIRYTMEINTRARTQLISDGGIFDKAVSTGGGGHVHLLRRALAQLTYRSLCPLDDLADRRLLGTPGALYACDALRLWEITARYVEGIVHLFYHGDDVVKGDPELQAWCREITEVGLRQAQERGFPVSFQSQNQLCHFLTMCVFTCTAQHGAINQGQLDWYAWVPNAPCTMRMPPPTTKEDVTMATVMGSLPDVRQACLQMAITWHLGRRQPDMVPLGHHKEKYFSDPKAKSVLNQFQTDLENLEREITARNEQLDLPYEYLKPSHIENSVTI
As to the kind of experiment: Platelet 12-lipoxygenase inhibiting activity (Test Example 2, [14C]-arachidonic acid, TLC). It counts as biochemical. The settings on record: bovine platelet-derived preparation; 20 μM [14C]-arachidonic acid; pH 7.4; 30° C., 10 min; TLC/scintillation; read-out: Inhibitory Activity IC50, 12-Lipoxygenase.

Experiment [2] deals with T2, 5-lipoxygenase (Rattus norvegicus, UniProt P12527).
T2 construct: rat basophilic leukemia cells (RBL-1, ATCC No. CRL 1378) were used as the 5-lipoxygenase source; endogenous in cells; host or cells: RBL-1 (rat basophilic leukemia, ATCC CRL 1378)
T2 sequence (P12527 1-673): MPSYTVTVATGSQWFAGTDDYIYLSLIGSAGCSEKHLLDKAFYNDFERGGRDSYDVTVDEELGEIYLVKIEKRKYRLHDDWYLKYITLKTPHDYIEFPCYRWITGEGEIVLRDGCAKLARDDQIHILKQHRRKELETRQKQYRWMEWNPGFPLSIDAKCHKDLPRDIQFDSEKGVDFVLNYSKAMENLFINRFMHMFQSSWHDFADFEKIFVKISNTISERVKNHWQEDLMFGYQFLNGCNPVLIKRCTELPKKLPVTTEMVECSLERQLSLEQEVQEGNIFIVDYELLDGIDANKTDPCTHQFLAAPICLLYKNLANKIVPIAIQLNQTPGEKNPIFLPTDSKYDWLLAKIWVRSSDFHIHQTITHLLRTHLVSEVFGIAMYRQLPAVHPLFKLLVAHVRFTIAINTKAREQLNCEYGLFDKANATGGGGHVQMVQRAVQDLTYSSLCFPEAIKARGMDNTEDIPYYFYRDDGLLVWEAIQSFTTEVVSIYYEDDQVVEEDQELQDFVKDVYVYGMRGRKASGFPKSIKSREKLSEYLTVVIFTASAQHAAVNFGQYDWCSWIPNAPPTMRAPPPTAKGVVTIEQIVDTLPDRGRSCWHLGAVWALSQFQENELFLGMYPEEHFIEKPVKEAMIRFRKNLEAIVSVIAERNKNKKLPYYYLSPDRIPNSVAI
Put plainly: 5-Lipoxygenase inhibiting activity (Test Example 2, [14C]-arachidonic acid, TLC). Format: biochemical. The settings on record: RBL-1 cells as enzyme source; 27 μM [14C]-arachidonic acid; pH 7.4; 37° C., 5 min; TLC/scintillation; read-out: Inhibitory Activity IC50, 5-Lipoxygenase. The procedure:
The compounds listed in Table 3 were tested for their lipoxygenase inhibiting activity by the following methods:
(a') 5-Lipoxygenase inhibiting activity
Essentially, the same method described in the above (a) was used. Thus, rat basophilic leukemia cells (RBL-1, ATCC No. CRL 1378) were used as the 5-lipoxygenase source. These cells were contacted with the test compound in 30 μl of 0.17 M Tris-hydrochloride buffer (pH 7.4) containing […] calcium chloride, 3.3 mM adenosine triphosphate and 1 mM glutathione at 37° C. for 5 minutes. Then, 25 μl of 27 μM [^14 C]-arachidonic acid was added and the enzymatic reaction was allowed to proceed at 37° C. for 5 minutes. To the reaction mixture was added 50 μl of ethyl acetate/methanol/0.2 M citric acid (30/4/1), and the whole mixture was stirred. The reaction product extracted into the ethyl acetate layer was separated by silica gel thin layer chromatography [Merck Art 5631: developing solvent; petroleum ether/ethyl ether/acetic acid (50/50/1)]. The site of the product [^14 C]-5-hydroxy-6,8,11,14-eicosatetraenoic acid was detected by autoradiography, the gel portion corresponding to the site was scraped off and assayed for ^14 C using a liquid scintillation counter, and the yield of the product was determined.

The target of experiment [3] is T1, 12-lipoxygenase. Put plainly: Platelet 12-lipoxygenase inhibiting activity (Test Example 1, HPLC determination of 12-HETE). Format: biochemical. The settings on record: bovine platelet-derived preparation; 60 μM arachidonic acid; pH 7.4; 30° C., 10 min; HPLC of 12-HETE; read-out: Inhibitory Activity IC50, 12-Lipoxygenase. The procedure:
(§1) The compounds listed in Table 2 were tested in vitro for their lipoxygenase inhibiting activity in the following manner: a) Leukocyte 5-lipoxygenase inhibiting activity
The method of D.H. Nugtern et al. Biochem. Biophys. Acta, 380, 299 (1975) was modified. Thus, a bovine platelet-derived preparation was used as the 12-lipoxygenase source. This enzyme preparation and the test compound were brought into contact with each other in 60 μl of 0.17 M Tris-hydrochloride buffer (pH 7.4) at 30° C. for 5 minutes, 50 μl of 60 μM arachidonic acid was then added and the enzymatic reaction was allowed to proceed at 30° C. for 10 minutes. Thereafter, 200 μl of methanol and 13-hydroxylinolic acid (internal standard) were added and, after sufficient shaking, the mixture was allowed to stand at -20° C. for 30 minutes. The supernatant was collected by centrifugation (12,000 revolutions per minute, 10 minutes). This supernatant was evaporated to dryness under a nitrogen gas stream. To the residue was added 200 μl of 75% aqueous methanol and 100 μl of the resultant solution was subjected to high performance liquid chromatography for the determination of 12-HETE (12-hydroxyeicosapetraenoic acid). 12-HETE was assayed by ultraviolet absorption monitoring at 234 nm. The yield of 12-HETE was calculated from the peak area corrected in comparison with the peak of the internal standard.

Experiment [4] deals with T2, 5-lipoxygenase. Put plainly: Leukocyte 5-lipoxygenase inhibiting activity (Test Example 1, HPLC determination of 5-HETE). The settings on record: RBL-1 cells as enzyme source; 60 μM arachidonic acid; pH 7.4; 37° C., 5 min; HPLC of 5-HETE; read-out: Inhibitory Activity IC50, 5-Lipoxygenase. Format: biochemical. The procedure:
as §1
The method of B.A. Jakschik et al. Biochem. Biophys. Res. Commun., 95, 103 (1980) was modified. Thus, rat basophilic leukemia cells (RBL-1, ATCC No. CRL 1378) were used as the 5-lipoxygenase source. These cells were brought into contact with the test compound in 60 μl of 0.17 M Tris-hydrochloride buffer (pH 7.4) containing […], 3.3 mM adenosine triphosphate and 1 mM glutathione at 37° C. for 5 minutes, then 50 μl of 60 μM arachidonic acid was added and the enzymatic reaction was allowed to proceed at 37° C. for 5 minutes. Thereafter, 200 μl of methanol and 13-hydroxylinolic acid (internal standard) were added. After sufficient shaking, the mixture was allowed to stand at -20° C. for 30 minutes and then centrifuged for 10 minutes (12,000 revolutions per minute) to collect the supernatant. The supernatant was evaporated to dryness under a nitrogen gas stream. To the residue was added 200 μl of 75% aqueous methanol and 100 μl of the resultant solution was subjected to high performance liquid chromatography for the determination of 5-HETE (5-hydroxyeicosatetraenoic acid). 5-HETE was assayed on the basis of the absorption at 234 nm as measured by ultraviolet absorption monitoring. The yield of 5-HETE was calculated from the peak area corrected in comparison with the peak of the internal standard. […] (b) Platelet 12-lipoxygenase inhibiting activity

The conditions of experiment [5]: literature; cited from earlier work.
For a further experiment, the system named is lipoxygenase. The settings on record: known compounds; cited from earlier work.

Turning to `COC(=O)CCC(=O)NCCCCCN(O)C(=O)CCCCCCCCC(C)C` [compound 27], the IC50 (usually the midpoint of a concentration-inhibition curve) at 12-lipoxygenase [1] worked out at 33 nM; at 5-lipoxygenase [2], 89 nM.

For `CCCCCCCCCCCCC(=O)N(O)CCCCCNC(=O)CCC(=O)OC` [compound 24], the results for the IC50 on 12-lipoxygenase [1] and on 5-lipoxygenase [2] were 36 nM and 190 nM, respectively.

On to `CCCCCCCCCCCC(=O)N(O)CCCNC(=O)CCC(=O)O` [Compound No. 10], for which the IC50 at 12-lipoxygenase [3] was 7000 nM; at 5-lipoxygenase [4] it was 270 nM.

As to `CC1=C(C)C(=O)C(CCCCC#CCCCC#CCO)=C(C)C1=O` [AA-861, 2-(12-hydroxy-dodeca-5,10-diynyl)-3,5,6-trimethyl-1,4-benzoquinone, reference compound], the IC50 on 12-lipoxygenase [1] stood at 450000 nM; at 5-lipoxygenase [2], 680 nM. In addition, the “pharmacological activities (in words)” value in experiment [5] is “bronchial contraction suppressing, anti-inflammatory, anti-myocardiac infarction and other activities”. For the same molecule, in the experiment with lipoxygenase, the “lipoxygenase inhibiting activity (in words)” value is on record as “known to have lipoxygenase inhibiting activity”.

On to `Cl.NC1=NN(c2cccc(C(F)(F)F)c2)CC1` [BW-755C, 3-amino-1-(3-trifluoromethylphenyl)-2-pyrazoline hydrochloride], for which the IC50 on 12-lipoxygenase [1] was determined as 8800 nM. For the same molecule, in experiment [5], the “pharmacological activities (in words)” value was “anti-inflammatory and other activities”. For the same molecule, in the experiment on lipoxygenase, the “lipoxygenase inhibiting activity (in words)” value is recorded as “known to have lipoxygenase inhibiting activity”.

For `CCCCCCCCCCCC(=O)NCCCCCN(O)C(=O)CCC(=O)OC` [Compound No. 2], the IC50 at 12-lipoxygenase [3] was determined as 3300 nM; on 5-lipoxygenase [4] it was 10 nM.

On to `CCCCCCCCCCCC(=O)N(O)CCCCCNC(=O)CCC(=O)O` [Compound No. 12], for which the IC50 on 12-lipoxygenase [1] was 35 nM; at 5-lipoxygenase [2], 1870 nM.

Consider `CCCCCCCCCCCC(=O)N(O)CCCCCNC(=O)CCC(=O)OC` [Compound No. 13], for which the IC50 came out at 14 nM at 12-lipoxygenase [1] and 55 nM at 5-lipoxygenase [2].

Consider `CCCCCCCCCCCC(=O)N(O)CCCCCNCCCC(=O)OC` [Compound No. 7], for which the IC50 on 5-lipoxygenase [4] was found to be 52 nM.

In the case of `CCCCCCCCCCCC(=O)N(O)CCCNC(=O)CCC(=O)OC` [Compound No. 11], at 5-lipoxygenase [4], the IC50 was found to be 12 nM.

As to `COC(=O)CCC(=O)NCCCCCN(O)C(=O)CCCCCCCCCCC(C)C` [compound 23], the IC50 at 12-lipoxygenase [1] is 56 nM; at 5-lipoxygenase [2], 300 nM.

`CCCCCCCCCCCC(=O)N(O)CCCCCNC(=O)CC(=O)OCC` [Compound No. 8]: the results for the IC50 at 12-lipoxygenase [3] and at 5-lipoxygenase [4] were 12 nM and 25 nM, respectively.

As to `CCCCCCCCCCCC(=O)N(O)CCCCCNC(=O)CC(=O)OC` [Compound No. 9], the IC50 at 12-lipoxygenase [3] worked out at 11 nM; at 5-lipoxygenase [4], 54 nM.

`CCCCCCCCCCCCCCCCCC(=O)N(O)CCCCCNC(=O)CCC(=O)OC` [compound 15]: the IC50 at 12-lipoxygenase [1] worked out at 32000 nM; on 5-lipoxygenase [2] it was 800 nM.

On to `CCCCCCCCCCCCCCCC(=O)N(O)CCCCCNC(=O)CCC(=O)OC` [compound 17], for which the IC50 at 12-lipoxygenase [1] turned out to be 1000 nM; on 5-lipoxygenase [2] it was 470 nM.

Turning to `CCCCCCCCCCCC(=O)N(O)CCCCCNCCCC(=O)O` [Compound No. 6], the IC50 on 5-lipoxygenase [4] is 560 nM.

For the molecule `CCC(C)CCCCCCCCCCC(=O)N(O)CCCCCNC(=O)CCC(=O)OC` (stereo not shown) [compound 21], the IC50 on 12-lipoxygenase [1] was 310 nM; at 5-lipoxygenase [2], 360 nM.
